Measured values reported in article PMC5458211, “Mitochondrial VDAC1-based peptides: Attacking oncogenic properties in glioblastoma” (Oncotarget, 2017).
Non-standard residues stand in square brackets, D forms with d. Residues, ends and D or L forms follow the SMILES beside them.

Tested on: metabolic enzymes and transporters
Test: Expression of energy- and metabolism-related proteins in treated tumors (IHC, immunoblot)
Assay type: in vivo, human U-87MG in nude mice
Conditions: for VDAC1 staining: treated tumors vs strong staining in PBS/DMSO
From the text: Figure 5 VDAC1-based peptide-treated tumors show marked changes in the expression of energy- and metabolism-related enzymes Dissected tumors were subjected to immunohistochemistry as described in Experimental Procedures. A, B. Representative sections from PBS/DMSO- and Tf-D-LP4-TTs were IHC stained for Glut-1, HK-I, HK-II, GAPDH, LDH, VDAC1, CS, Complex IVc and ATP synthase 5a are presented. Sections were also hematoxylin-stained and visualized by microscopy. C. Tissue lysates obtained from controls and several Tf-D-LP4-TTs were immunoblotted for HK-I, HK-II, VDAC1, GAPDH, LDH, CS, and ATP synthase 5a. D. Quantitative analysis of immunoblots is shown (n=2-4).
Formalin-fixed, paraffin-embedded sections of control and peptide-TTs were hematoxylin-eosin stained, probed with appropriate antibodies via IHC staining or immunoblotting of cells and tissue extracts. […]
10 ml of aqueous solution containing 1% PVA (w/v). The software. These experimental protocols were approved by mixtures were stirred continuously at room temperature the Institutional Animal Care and Use Committee of Ben-until complete evaporation of the organic solvent. The Gurion University. […]
HBSS solution. Cells or tumor tissue were lysed using lysis buffer (50 mM Tris-HCl, pH 7.5, 150 mM NaCl, 1
Xenograft and intracranial-orthotopic mouse mM EDTA, 1.5 mM MgCl2, 10% glycerol, 1% Triton models X-100, supplemented with a protease inhibitor cocktail
(Calbiochem, UK). Cell lysates were then centrifuged at U-87MG glioblastoma cells (3 x106) were inoculated 600xg (10 min at 4°C) and samples (10-40 μg of protein) s.c. into the hind leg ﬂanks of athymic eight-week old were subjected to SDS-PAGE and immunoblotting male nude mice (Envigo). Thirteen days post-inoculation, using various primary antibodies (sources and dilutions tumor volume was measured and calculated (100-130 as detailed in supplementary Table 2), followed by mm3) and mice were randomized into three groups (5 the appropriate HRP-conjugated secondary antibodies mice/group). Each treatment substance was injected into (i.e., anti-mouse, anti-rabbit or anti-goat). Blots the established s,c. tumors using PBS containing 0.26% were developed using enhanced chemiluminescence DMSO or peptide in PBS, 0.26% DMSO/20 μM). The (Biological Industries). Band intensities were analyzed xenografts were injected 20 µl per tumor (2 points) every by densitometry using Multi Gauge software (Fujifilm) two days. Beginning on the day of inoculation, mouse and the values were normalized to the intensities of the weight and tumor volume were monitored twice a week appropriate β-actin signal that served as a loading control. for a period of 23 days using a digital caliper. At the end of the experiments, the mice were sacrificed, tumors were IHC of tumor tissue sections excised and ex vivo weight was determined. Half of each tumor was either fixed in 4% buffered formaldehyde, IHC staining was performed on 5 μm-thick paraffin-embedded and processed for IHC or frozen in formalin-fixed and paraffin-embedded tumor tissue liquid nitrogen for later immunoblot analysis. sections. The sections were deparaffinized by placing To generate an intracranial-orthotopic mouse model, the slides at 60°C for 1 h and using xylene. […]
(Stoelting, Wood Dale, IL). A middle incision was made c, cytochrome c oxidase subunit IVc, GAPDH, Glut1, on the skull and a burr hole was introduced 0.5 mm HK-II, Klf4, LDH, Nestin, NGFR, P53, SMAC/Diablo, anterior to the bregma and 2.5 mm lateral to the midline Sox2, S100b, VDAC1) was performed in 0.01 M citrate using a drill (Stoelting). A 31-gauge needle loaded with buffer (pH 6.0). For CD31, HK-I and Ki-67, antigen 10 µL PBS was used to deliver tumor cells. The needle retrieval was performed in 10 mM Tris-EDTA (pH 9) and tip was inserted into the brain 3 mm deep, relative to the 0.5 M Tris (pH 10), for 30 minutes each at 95-98°C. After […]

SMILES | VDAC1 staining | ATP synthase subunit 5a expression (treated tumors vs PBS/DMSO) | GAPDH level (treated tumors vs PBS/DMSO) | Glut-1 level (treated tumors vs PBS/DMSO) | HK-I level (treated tumors vs PBS/DMSO) | HK-II level (treated tumors vs PBS/DMSO) | LDH level (treated tumors vs PBS/DMSO) | citrate synthase (CS) expression (treated tumors vs PBS/DMSO) | complex IVc expression (treated tumors vs PBS/DMSO)
CC[C@@H](C)[C@@H](NC(=O)[C@@H](CCCCN)NC(=O)[C@H](NC(=O)[C@@H](CCC(N)=O)NC(=O)[C@@H](CCCNC(=N)N)NC(=O)[C@@H](CC(C)C)NC(=O)CNC(=O)[C@@H](Cc1ccccc1)NC(=O)CNC(=O)[C@@H](Cc1ccc(O)cc1)NC(=O)CNC(=O)[C@@H](CCCCN)NC(=O)[C@H](NC(=O)[C@@H](Cc1ccccc1)NC(=O)[C@H](NC(=O)[C@@H](CC(=O)O)NC(=O)[C@H](N)CCCNC(=N)N)C(C)C)[C@H](C)O)[C@H](C)CC)C(=O)N[C@H](Cc1c[nH]c2ccccc12)C(=O)N[C@H](Cc1ccccc1)C(=O)N[C@H](CCC(N)=O)C(=O)N[C@H](CC(N)=O)C(=O)N[C@H](CCCNC(=N)N)C(=O)N[C@H](CCCNC(=N)N)C(=O)N[C@H](CCSC)C(=O)N[C@H](CCCCN)C(=O)N[C@H](Cc1c[nH]c2ccccc12)C(=O)N[C@H](CCCCN)C(=O)N[C@H](CCCCN)C(=O)O [D-ΔN-Ter-Antp] (H-[dR][dD][dV][dF][dT][dK]G[dY]G[dF]G[dL][dR][dQ][dI][dK][dI][dW][dF][dQ][dN][dR][dR][dM][dK][dW][dK][dK]-OH; N-terminus and C-terminus assumed) | only very weak staining | – | – | – | – | – | – | – | –
CC[C@H](C)[C@H](NC(=O)[C@H](C)NC(=O)[C@@H](N)Cc1c[nH]cn1)C(=O)N[C@@H](Cc1ccc(O)cc1)C(=O)N1CCC[C@H]1C(=O)N[C@@H](CCCNC(=N)N)C(=O)N[C@@H](Cc1c[nH]cn1)C(=O)N[C@@H](CO)C(=O)N[C@@H](Cc1c[nH]c2ccccc12)C(=O)N[C@H](C(=O)N[C@@H](Cc1c[nH]c2ccccc12)C(=O)N[C@@H](CCC(=O)O)C(=O)N[C@H](CCCCN)C(=O)N[C@H](CCCCN)C(=O)N[C@H](CC(C)C)C(=O)N[C@H](CCC(=O)O)C(=O)N[C@@H](C(=O)N[C@H](C)C(=O)N[C@@H](C(=O)N[C@H](CC(N)=O)C(=O)N[C@H](CC(C)C)C(=O)N[C@H](C)C(=O)N[C@H](Cc1c[nH]c2ccccc12)C(=O)N[C@@H](C(=O)N[C@H](C)C(=O)NCC(=O)N[C@H](CC(N)=O)C(=O)N[C@H](CO)C(=O)N[C@H](CC(N)=O)C(=O)N[C@@H](CCCCN)C(=O)N[C@@H](Cc1c[nH]c2ccccc12)C(=O)N[C@H](C(=O)N[C@@H](Cc1c[nH]c2ccccc12)C(=O)N[C@@H](CCCCN)C(=O)O)[C@@H](C)O)[C@H](C)O)C(C)C)[C@H](C)O)[C@@H](C)O [Tf-D-LP4] | only very weak staining | markedly lower | dramatically lower | dramatically lower | dramatically lower | dramatically lower | dramatically lower | markedly lower | markedly lower
